In US20110311591A1, “Antimicrobial Coating” (SHEFFIELD HALLAM UNIVERSITY, priority 2008, published 2011):

Tests used:
Type in all cases: cell-based
[1] = system: Escherichia coli (W3110, k 12 mutant); assay: Growth on agar/gentamicin plate (resistance check); details: 50 μg per ml
Experimental: (§1) Each of the bacterium where grown on a nutrient agar plate and an agar/gentamicin plate at a concentration of 50 μg per ml. This ensured the bacterial strains used where not resistant to gentamicin. One colony from the bacteria agar plate was used to inoculate a sterilized L-broth of 1% tryptone, 0.5% yeast extract, 0.5% NaCl, 0.2% glucose and left over night in a shaking incubator at 37° C.

Staphylococcus aureus = assay: Growth on agar/gentamicin plate (resistance check); details: 50 μg per ml
Experimental: as §1

[2] = system: coagulase negative Staphylococcus epidermis; assay: Growth on agar/gentamicin plate (resistance check); details: 50 μg per ml
Experimental: as §1

bacteria = assay: Viable count on high temperature (80° C.) dried coating; details: coat dried at 80° C.
Experimental: The substrate was a standard glass microscope slide sterilized in an autoclave. Three different coatings were tested i) a pure sol-gel coating was used for a control, ii) a 5 mg/ml gentamicin solution mixed with sol-gel to form a 50 μg/ml coating (50 ppm) and a iii) 12.5 mg/ml concentration of gentamicin was made from gentamicin sulphate dissolved directly in the sol-gel to provide a 1.25% gentamicin sol-gel coating. Each coating was applied over the microscope slide using 200 μl of coating per plate, covered in one single coat and left for 24 hrs at room temperature to allow the coat to cure. Four plates were dried at 80° C. for 1 hr achieving a harder coat to determine if the gentamicin coat was still active after high temperature treatment.
To infect the plates with bacteria, a “sloppy agar” was made up from 0.7 g of nutrient agar dissolved in 100 ml of Phosphate buffer saline (PBS) and autoclaved forming a jelly like consistency. After melting, 5 ml of a inoculate L-broth was pipetted in to 100 ml of sloppy agar and mixed with 500 μl of this inoculated agar to be pipetted on to a coated plate forming a drop sitting on top of the coat. The plate was then laid flat into a Petri dish which was then placed in to a sealed, airtight, container with damp tissue paper to keep the sloppy agar in a moist environment to prevent drying out. […]

For gentamicin, the susceptibility to gentamicin [1] was “susceptible”, the susceptibility to gentamicin (Staphylococcus aureus) was “susceptible” and the susceptibility to gentamicin [2] was “susceptible”. For the same substance, the “gentamicin activity and release after high temperature drying of the coat” value (bacteria) was “still active and released”.
